System: Female C57/bl6 Mice
Test: V. Cholerae Experiment 1: immune response in fecal pellets
Assay type: in vivo
Conditions: oral, 2.5×10^8 bacteria, 10 μg αGalCer, 3 rounds, ELISA

CCCCCCCCCCCCCCCCCCCCCCCCCC(=O)N[C@@H](CO[C@H]1O[C@H](CO)[C@H](O)[C@H](O)[C@H]1O)[C@H](O)[C@H](O)CCCCCCCCCCCCCC [αGalCer, α-galactosylceramide]
anti Inaba-LPS IgA and IgG titres in fecal pellets: effective adjuvant

Source: US20150182456A1, “HYDROGEL VACCINE FORMULATIONS” (Sigmoid Pharma Limited, priority 2012, published 2015)
